pIC50: −log10 of the molar value.
Biological target: VLA-4 (Homo sapiens, UniProt P05556+P13612)
Test: VLA-4 direct binding assay (DBA)
Excerpt: (§1) Those skilled in the art routinely perform such assays, and can readily determine the activity of the experimental compound.
as §1

Chain of VLA-4 (P13612 34-1032): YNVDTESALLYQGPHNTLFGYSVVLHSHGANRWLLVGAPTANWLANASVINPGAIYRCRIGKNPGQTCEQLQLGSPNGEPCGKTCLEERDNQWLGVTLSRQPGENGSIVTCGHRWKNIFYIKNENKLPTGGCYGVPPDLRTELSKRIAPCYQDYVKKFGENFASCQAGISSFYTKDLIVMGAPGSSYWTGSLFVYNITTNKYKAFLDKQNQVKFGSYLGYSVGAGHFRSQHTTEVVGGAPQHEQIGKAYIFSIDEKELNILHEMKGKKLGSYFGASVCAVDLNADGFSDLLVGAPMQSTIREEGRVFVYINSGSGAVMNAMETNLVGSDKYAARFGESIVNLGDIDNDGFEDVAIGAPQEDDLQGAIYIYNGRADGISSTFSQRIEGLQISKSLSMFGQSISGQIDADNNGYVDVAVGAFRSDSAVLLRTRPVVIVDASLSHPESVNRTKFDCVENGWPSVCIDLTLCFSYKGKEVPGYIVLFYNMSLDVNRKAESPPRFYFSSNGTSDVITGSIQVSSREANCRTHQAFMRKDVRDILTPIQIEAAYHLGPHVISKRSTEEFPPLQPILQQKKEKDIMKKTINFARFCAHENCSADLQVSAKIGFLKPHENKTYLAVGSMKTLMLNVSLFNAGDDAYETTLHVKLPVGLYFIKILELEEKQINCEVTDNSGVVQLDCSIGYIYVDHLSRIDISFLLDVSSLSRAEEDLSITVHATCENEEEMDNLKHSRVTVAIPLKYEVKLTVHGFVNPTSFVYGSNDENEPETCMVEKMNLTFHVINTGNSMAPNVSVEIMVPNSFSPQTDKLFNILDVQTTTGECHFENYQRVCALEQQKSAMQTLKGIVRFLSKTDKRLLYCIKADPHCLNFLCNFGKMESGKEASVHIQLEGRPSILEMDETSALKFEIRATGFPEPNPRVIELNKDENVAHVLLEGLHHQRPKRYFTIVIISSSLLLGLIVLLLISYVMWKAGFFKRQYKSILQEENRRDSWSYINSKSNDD
Chain of VLA-4 (P05556 21-798): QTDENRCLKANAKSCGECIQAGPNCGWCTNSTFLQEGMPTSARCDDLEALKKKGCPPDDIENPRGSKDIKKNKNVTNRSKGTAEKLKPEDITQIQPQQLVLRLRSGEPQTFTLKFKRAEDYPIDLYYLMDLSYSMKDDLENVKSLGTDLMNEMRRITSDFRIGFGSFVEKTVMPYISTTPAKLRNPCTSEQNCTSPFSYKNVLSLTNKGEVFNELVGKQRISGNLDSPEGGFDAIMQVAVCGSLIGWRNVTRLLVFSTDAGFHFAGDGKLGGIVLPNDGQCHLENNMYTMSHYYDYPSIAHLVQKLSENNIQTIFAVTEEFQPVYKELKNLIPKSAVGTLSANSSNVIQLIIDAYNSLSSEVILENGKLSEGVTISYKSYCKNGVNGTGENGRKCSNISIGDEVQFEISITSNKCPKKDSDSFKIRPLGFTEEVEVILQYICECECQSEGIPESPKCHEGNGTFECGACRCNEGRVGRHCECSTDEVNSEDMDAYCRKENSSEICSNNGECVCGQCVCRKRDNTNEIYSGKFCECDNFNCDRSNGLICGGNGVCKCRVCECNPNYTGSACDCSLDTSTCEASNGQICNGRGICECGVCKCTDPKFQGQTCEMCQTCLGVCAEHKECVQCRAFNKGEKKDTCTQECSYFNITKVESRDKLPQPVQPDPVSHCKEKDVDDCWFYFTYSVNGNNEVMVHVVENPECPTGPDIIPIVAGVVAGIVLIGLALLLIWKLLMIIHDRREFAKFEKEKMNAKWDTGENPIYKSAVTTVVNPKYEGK

pIC50: 5.70
SMILES: CC(C)C[C@H](NC(=O)Cc1ccccc1)C(=O)N[C@@H](CC(=O)O)C(=O)N[C@H](C(=O)N1CCC[C@H]1C(=O)O)C(C)C [Phenylacetyl-Leu-Asp-Val-Pro]

Reference: patent US6552216B1, “Molecular model for VLA-4 inhibitors” (Biogen, Inc., priority 1996, dated 2003)
